Experimental data published in patent US20080207596A1, “Novel compounds 329” (priority 2006, published 2008).

Biological target: T1, human active recombinant p38α-6His tagged (Homo sapiens, UniProt Q16539)
T1 construct: 6His
Experiment: P38 alpha enzyme assay (AlphaScreen, biotinylated-ATF2 substrate)
Format: biochemical
Conditions: 4 hours pre-incubation at 37° C., 1 mM ATP added
Protocol: Enzyme assays were performed in polypropylene 96 well plates. The following solutions were added to each well; 10 μL of compound dilutions in assay buffer (20 mM HEPES pH 7.4, containing 20 mM magnesium acetate, 0.005% (w/v) Tween-20, 10 mM DTT) containing 1% (v/v) DMSO or assay buffer containing 1% (v/v) DMSO alone, 70 μL of assay buffer containing 36 nM substrate (biotinylated-ATF2) and 10 μL of an appropriate dilution of human active recombinant p38α-6His tagged. Depending on batch of p38, an appropriate dilution was typically a 5 nM solution to give a final enzyme concentration of 0.5 nM. At this stage, background control wells also received 50 μL of AlphaScreen quench buffer (10 mM HEPES pH 7.4 containing 100 mM EDTA, 0.2% (w/v) bovine serum albumin). The plate was covered, pre-incubated for 4 hours at 37° C. and the enzyme reaction initiated by addition of 10 μL 1 mM ATP. After incubation for a further 45 minutes at 37° C., the reaction was stopped by addition of 50 μL quench reagent and 50 μL of the quenched reaction mixture transferred to an opaque, white 96-well plate. Detection reagent, 25 μL of 10 mM HEPES pH 7.4 containing 100 mM EDTA, 0.2% (w/v) bovine serum albumin, 0.3 nM anti phosphoATF2 antibody and 25 μg/mL of AlphaScreen protein A acceptor and donor beads, was added to all wells in a darkened room, the plate sealed and left in the dark for between 5 and 24 hours before AlphaScreen readings were taken using a Perkin Elmer EnVision reader.

T1 sequence (Q16539 whole entry): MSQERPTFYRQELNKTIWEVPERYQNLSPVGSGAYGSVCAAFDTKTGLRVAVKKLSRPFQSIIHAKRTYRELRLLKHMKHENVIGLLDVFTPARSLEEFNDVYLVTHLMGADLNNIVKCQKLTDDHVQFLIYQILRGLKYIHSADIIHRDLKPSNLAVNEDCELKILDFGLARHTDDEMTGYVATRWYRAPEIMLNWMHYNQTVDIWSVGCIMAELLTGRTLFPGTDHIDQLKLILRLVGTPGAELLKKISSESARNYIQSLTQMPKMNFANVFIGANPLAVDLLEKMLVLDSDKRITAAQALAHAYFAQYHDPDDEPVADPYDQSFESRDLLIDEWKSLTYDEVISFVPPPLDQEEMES

IC50 | Structure (SMILES)
0.794 nM | Cc1ccc(NC(=O)c2cccc(-c3cnco3)c2)cc1-n1ccc2ccc(OCCCN3CCCC3)cc2c1=O [Example 11, N-{4-Methyl-3-[1-oxo-7-(3-pyrrolidin-1-ylpropoxy)isoquinolin-2(1H)-yl]phenyl}-3-(1,3-oxazol-5-yl)benzamide]
2 nM | Cc1ccc(NC(=O)c2ccnc(N3CCCC3)c2)cc1-n1ccc2ccc(OCCN3CCCC3)cc2c1=O [Example 5, N-{4-Methyl-3-[1-oxo-7-(2-pyrrolidin-1-ylethoxy)isoquinolin-2(1H)-yl]phenyl}-2-pyrrolidin-1-ylisonicotinamide]
10 nM | Cc1ccc(NC(=O)c2cccc(N3CCCCC3)c2)cc1-n1ccc2ccc(OCCN3CCCC3)cc2c1=O [Example 1, N-{4-Methyl-3-[1-oxo-7-(2-pyrrolidin-1-ylethoxy)isoquinolin-2(1H)-yl]phenyl}-3-piperidin-1-ylbenzamide]
0.2 nM | Cc1ccc(NC(=O)c2ccnc(-c3cccs3)c2)cc1-n1ccc2ccc(OCCN(C)C)cc2c1=O [Example 9, N-{3-[7-[2-(dimethylamino)ethoxy]-1-oxoisoquinolin-2(1H)-yl]-4-methylphenyl}-2-(2-thienyl)isonicotinamide]
